The source of these data is US10683289B2, “Apoptosis signal-regulating kinase 1 inhibitors and methods of use thereof” (ENANTA PHARMACEUTICALS, INC., priority 2018, dated 2020).

This test has as its target ASK1 (Homo sapiens (Human), UniProt Q99683). Briefly: HTRF KinEASE Assay, inhibition of ASK1. The class given is biochemical. As to conditions: 5 nM ASK1 kinase, 1 uM STK3 peptide substrate, 100 uM ATP, TR-FRET; read-out: IC50 range. The method, then:
HTRF® KinEASE™ Assay ASK1 was purchased from Thermofisher (Catalogue # PV4011), ATP was purchased from Sigma (Catalogue # A7699), HTRF® KinEASE™ Assay System was obtained from Cisbio (Bedford, Mass.). ½ Area plate was purchased from Perkin Elmer (Catalogue # #6005560). HTRF® KinEASE™-STK is a generic method for measuring serine/threonine kinase activities using a time-resolved fluorescence resonance energy transfer (TR-FRET) immunoassay. […] The test compound, 1 uM STK3 peptide substrate, and 5 nM of ASK1 kinase are incubated with kinase reaction buffer containing 50 mM HEPES pH 7.5, 0.01% BRIJ-35, 10 mM MgCl2, and 1 mM EGTA for 30 minutes. 100 uM ATP is added to start kinase reaction and incubated for 3 hours. The STK3-antibody labeled with Eu^3+-Cryptate and 125 nM streptavidin-XL665 are mixed in a single addition with stop reagents provided by the Cisbio kit used to stop the kinase reaction. Fluorescence is detected using an Envision Multilabeled 2014 reader from PerkinElmer. The Fluorescence is measured at 615 nm (Cryptate) and 665 nm (XL665) and a ratio of 665 nm/615 nm is calculated for each well. The resulting TR-FRET is proportional to the phosphorylation level. […] IC50 was determined by XLfit 5.3. By using above method, the inhibition of ASK1 was evaluated for the compounds of Formula (I).

Sequence of ASK1 (Q99683 whole entry): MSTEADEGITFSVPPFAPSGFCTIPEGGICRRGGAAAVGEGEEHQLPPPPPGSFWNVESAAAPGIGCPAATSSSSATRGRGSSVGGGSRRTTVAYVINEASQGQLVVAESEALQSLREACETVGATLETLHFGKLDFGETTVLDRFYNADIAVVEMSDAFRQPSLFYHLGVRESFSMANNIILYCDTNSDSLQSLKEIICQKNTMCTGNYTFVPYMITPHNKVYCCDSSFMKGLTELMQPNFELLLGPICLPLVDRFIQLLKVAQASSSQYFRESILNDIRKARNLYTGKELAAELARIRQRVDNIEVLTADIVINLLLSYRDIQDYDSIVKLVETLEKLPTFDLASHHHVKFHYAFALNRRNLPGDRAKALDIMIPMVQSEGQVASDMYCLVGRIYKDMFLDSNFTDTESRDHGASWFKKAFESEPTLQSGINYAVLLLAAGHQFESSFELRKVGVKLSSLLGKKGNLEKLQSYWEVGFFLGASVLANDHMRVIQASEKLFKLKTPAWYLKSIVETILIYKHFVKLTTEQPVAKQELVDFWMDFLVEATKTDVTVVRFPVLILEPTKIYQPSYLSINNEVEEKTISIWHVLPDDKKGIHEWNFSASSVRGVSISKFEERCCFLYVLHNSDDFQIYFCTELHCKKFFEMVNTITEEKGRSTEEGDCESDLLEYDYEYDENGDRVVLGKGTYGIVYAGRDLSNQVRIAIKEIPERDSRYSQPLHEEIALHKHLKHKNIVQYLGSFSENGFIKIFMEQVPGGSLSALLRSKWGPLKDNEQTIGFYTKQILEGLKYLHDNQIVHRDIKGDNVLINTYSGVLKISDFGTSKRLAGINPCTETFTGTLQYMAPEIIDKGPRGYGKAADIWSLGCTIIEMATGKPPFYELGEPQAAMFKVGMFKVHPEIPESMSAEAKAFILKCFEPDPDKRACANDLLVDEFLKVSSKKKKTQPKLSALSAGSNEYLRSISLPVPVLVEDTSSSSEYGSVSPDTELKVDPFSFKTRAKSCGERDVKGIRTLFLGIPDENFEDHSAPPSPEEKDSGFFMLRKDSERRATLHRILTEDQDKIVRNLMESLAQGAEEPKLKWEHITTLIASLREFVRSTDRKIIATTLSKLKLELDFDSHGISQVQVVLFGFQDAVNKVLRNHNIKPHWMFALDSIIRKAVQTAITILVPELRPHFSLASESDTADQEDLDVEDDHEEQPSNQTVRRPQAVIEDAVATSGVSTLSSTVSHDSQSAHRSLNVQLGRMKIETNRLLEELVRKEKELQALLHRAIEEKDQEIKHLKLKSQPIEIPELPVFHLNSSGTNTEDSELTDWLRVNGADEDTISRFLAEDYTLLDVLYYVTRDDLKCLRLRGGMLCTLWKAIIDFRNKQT

Take `CC(C)n1nnnc1-c1cccc(NC(=O)c2cc3c(cc2F)CN(C(C)(C)C)S3(=O)=O)n1` [Example 1, 2-(tert-butyl)-5-fluoro-N-(6-(1-isopropyl-1H-tetrazol-5-yl)pyridin-2-yl)-2,3-dihydrobenzo[d]isothiazole-6-carboxamide 1,1-dioxide]: the 50% inhibitory concentration (IC50) lay within 100 to 1000 nM. Take `C[C@H](CO)n1nnnc1-c1cccc(NC(=O)c2cc3c(cc2F)CN(C(C)(C)C)S3(=O)=O)n1` [Example 2, (R)-2-(tert-butyl)-5-fluoro-N-(6-(1-(1-hydroxypropan-2-yl)-1H-tetrazol-5-yl)pyridin-2-yl)-2,3-dihydrobenzo[d]isothiazole-6-carboxamide 1,1-dioxide]: the IC50 fell in the range of 10 to 100 nM.

As to `CC(C)n1nnnc1-c1cccc(NC(=O)c2cc3c(cc2F)CCN(C(C)(C)C)S3(=O)=O)n1` [Example 4, 2-(tert-butyl)-6-fluoro-N-(6-(1-isopropyl-1H-tetrazol-5-yl)pyridin-2-yl)-3,4-dihydro-2H-benzo[e][1,2]thiazine-7-carboxamide 1,1-dioxide], the IC50 lay within 10 to 100 nM. For `COc1cc2c(cc1C(=O)Nc1cccc(-c3nnnn3C(C)C)n1)S(=O)(=O)N(C(C)(C)C)C2` [Example 6, 2-(tert-butyl)-N-(6-(1-isopropyl-1H-tetrazol-5-yl)pyridin-2-yl)-5-methoxy-2,3-dihydrobenzo[d]isothiazole-6-carboxamide 1,1-dioxide], the IC50 is above 1000 nM. In the case of `CC(C)N1Cc2cc(F)c(C(=O)Nc3cccc(-c4nncn4C(C)C)n3)cc2S1(=O)=O` [Example 7, 5-fluoro-2-isopropyl-N-(6-(4-isopropyl-4H-1,2,4-triazol-3-yl)pyridin-2-yl)-2,3-dihydrobenzo[d]isothiazole-6-carboxamide 1,1-dioxide], the 50% inhibitory concentration (IC50) lay in the range of 10 to 100 nM. As to `COc1cc2c(cc1C(=O)Nc1cccc(-c3nncn3C(C)C)n1)S(=O)(=O)N(C(C)C)C2` [Example 8, 2-isopropyl-N-(6-(4-isopropyl-4H-1,2,4-triazol-3-yl)pyridin-2-yl)-5-methoxy-2,3-dihydrobenzo[d]isothiazole-6-carboxamide 1,1-dioxide], the IC50 is below 1.5 nM. For `CC(C)N1Cc2cc(F)c(C(=O)Nc3cccc(-c4nnnn4[C@H](C)CO)n3)cc2S1(=O)=O` [Example 9, (R)-5-fluoro-N-(6-(1-(1-hydroxypropan-2-yl)-1H-tetrazol-5-yl)pyridin-2-yl)-2-isopropyl-2,3-dihydrobenzo[d]isothiazole-6-carboxamide 1,1-dioxide], the IC50 was in the range of 10 to 100 nM.

Take `COc1cc2c(cc1C(=O)Nc1cccc(-c3nnnn3[C@H](C)CO)n1)S(=O)(=O)N(C(C)C)C2` [Example 10, (R)—N-(6-(1-(1-hydroxypropan-2-yl)-1H-tetrazol-5-yl)pyridin-2-yl)-2-isopropyl-5-methoxy-2,3-dihydrobenzo[d]isothiazole-6-carboxamide 1,1-dioxide]: the concentration for half-maximal inhibition (IC50) was below 1.5 nM. For `CC(C)N1Cc2cc(OCC(F)(F)F)c(C(=O)Nc3cccc(-c4nnnn4[C@H](C)CO)n3)cc2S1(=O)=O` [Example 12, (R)—N-(6-(1-(1-hydroxypropan-2-yl)-1H-tetrazol-5-yl)pyridin-2-yl)-2-isopropyl-5-(2,2,2-trifluoroethoxy)-2,3-dihydrobenzo[d]isothiazole-6-carboxamide 1,1-dioxide] the value was 100 to 1000 nM; for `CC(C)Oc1cc2c(cc1C(=O)Nc1cccc(-c3nnnn3[C@H](C)CO)n1)S(=O)(=O)N(C(C)C)C2` [Example 13, (R)—N-(6-(1-(1-hydroxypropan-2-yl)-1H-tetrazol-5-yl)pyridin-2-yl)-5-isopropoxy-2-isopropyl-2,3-dihydrobenzo[d]isothiazole-6-carboxamide 1,1-dioxide], 10 to 100 nM; for `CC(C)N1Cc2cc(N(C)C)c(C(=O)Nc3cccc(-c4nnnn4[C@H](C)CO)n3)cc2S1(=O)=O` [Example 14, (R)-5-(dimethylamino)-N-(6-(1-(1-hydroxypropan-2-yl)-1H-tetrazol-5-yl)pyridin-2-yl)-2-isopropyl-2,3-dihydrobenzo[d]isothiazole-6-carboxamide 1,1-dioxide], 10 to 100 nM. With `CC(C)n1cnnc1-c1cccc(NC(=O)c2cc3c(cc2F)CN(C)S3(=O)=O)n1` [Example 15, 5-fluoro-N-(6-(4-isopropyl-4H-1,2,4-triazol-3-yl)pyridin-2-yl)-2-methyl-2,3-dihydrobenzo[d]isothiazole-6-carboxamide 1,1-dioxide] the figure was 10 to 100 nM; with `COc1cc2c(cc1C(=O)Nc1cccc(-c3nncn3C(C)C)n1)S(=O)(=O)N(C)C2` [Example 16, N-(6-(4-isopropyl-4H-1,2,4-triazol-3-yl)pyridin-2-yl)-5-methoxy-2-methyl-2,3-dihydrobenzo[d]isothiazole-6-carboxamide 1,1-dioxide], below 1.5 nM; with `C[C@H](CO)n1nnnc1-c1cccc(NC(=O)c2cc3c(cc2F)CN(C)S3(=O)=O)n1` [Example 17, (R)-5-fluoro-N-(6-(1-(1-hydroxypropan-2-yl)-1H-tetrazol-5-yl)pyridin-2-yl)-2-methyl-2,3-dihydrobenzo[d]isothiazole-6-carboxamide 1,1-dioxide], 10 to 100 nM.

As to `COc1cc2c(cc1C(=O)Nc1cccc(-c3nnnn3[C@H](C)CO)n1)S(=O)(=O)N(C)C2` [Example 18, (R)—N-(6-(1-(1-hydroxypropan-2-yl)-1H-tetrazol-5-yl)pyridin-2-yl)-5-methoxy-2-methyl-2,3-dihydrobenzo[d]isothiazole-6-carboxamide 1,1-dioxide], the IC50 was below 1.5 nM. Take `COCCN1Cc2cc(F)c(C(=O)Nc3cccc(-c4nncn4C(C)C)n3)cc2S1(=O)=O` [Example 19, 5-fluoro-N-(6-(4-isopropyl-4H-1,2,4-triazol-3-yl)pyridin-2-yl)-2-(2-methoxyethyl)-2,3-dihydrobenzo[d]isothiazole-6-carboxamide 1,1-dioxide]: the IC50 was 10 to 100 nM. Turning to `COCCN1Cc2cc(OC)c(C(=O)Nc3cccc(-c4nncn4C(C)C)n3)cc2S1(=O)=O` [Example 20, N-(6-(4-isopropyl-4H-1,2,4-triazol-3-yl)pyridin-2-yl)-5-methoxy-2-(2-methoxyethyl)-2,3-dihydrobenzo[d]isothiazole-6-carboxamide 1,1-dioxide], the IC50 was 10 to 100 nM. Turning to `COCCN1Cc2cc(F)c(C(=O)Nc3cccc(-c4nnnn4[C@H](C)CO)n3)cc2S1(=O)=O` [Example 21, (R)-5-fluoro-N-(6-(1-(1-hydroxypropan-2-yl)-1H-tetrazol-5-yl)pyridin-2-yl)-2-(2-methoxyethyl)-2,3-dihydrobenzo[d]isothiazole-6-carboxamide 1,1-dioxide], the IC50 was below 1.5 nM. Turning to `COCCN1Cc2cc(OC)c(C(=O)Nc3cccc(-c4nnnn4[C@H](C)CO)n3)cc2S1(=O)=O` [Example 22, (R)—N-(6-(1-(1-hydroxypropan-2-yl)-1H-tetrazol-5-yl)pyridin-2-yl)-5-methoxy-2-(2-methoxyethyl)-2,3-dihydrobenzo[d]isothiazole-6-carboxamide 1,1-dioxide], the IC50 was below 1.5 nM.

As a reminder, the IC50 is the concentration at which inhibition is half-maximal.
